In patent US20240197650A1, “Combination of Cinnamaldheyde and Eugenol with Antimycotic Activity” (priority 2021, published 2024):
In brackets after ≈: the same amount, converted by molar mass.

What was measured:
[1] = Additional essential oils in combination with cinnamaldehyde or eugenol; conditions: antimycotic activity
C. glabrata [2] = test: Disk diffusion method, C. glabrata strains; assay type: cell-based
Procedure: (§1) A total of eighteen strains belonging to Candida spp. (15 C. albicans, 2 C. glabrata and 1 C. lusitaniae) derived from a collection of vaginal strains isolated in CHROMAgar Candida (BD Italia SpA, Milan, Italy) were grown on Potato Dextrose Agar (Oxoid Thermofisher SpA, Milan, Italy) at 35° C. for 24 hours.
(§2) Colonies were re-suspended in sterile saline at a density corresponding to #0.5 McFarland (opacity standard). #0.5 McF correspond to 1.4×10^6 colony forming units (CFU)/ml for C. albicans, 4.3×10^6 CFU/ml for C. glabrata and 3×10^6 CFU/ml for C. lusitaniae [Guinea J. et al., Rapid antifungal susceptibility determination for yeast isolates by use of Etest performed directly on blood samples from patients with fungemia, J Clin Microbiol. 2010 June, 48(6): 2205-12]. Then, the sensitivity test vs the two oils has been performed. The disk diffusion method was carried out as follows: for each tested strain, 4 plates of Potato Dextrose Agar (PDA) were seeded in 3 directions to produce a confluent growth, by sterile swab soaked in the cell suspension. Sorbent paper disks (Oxoid Thermofisher SpA, Milan, Italy) 6.0 mm diameter were placed on the agar surface and added with 10 μl of each essential oil. Disks soaked with 10 μg amphotericin B were used as positive control. Also disks of chlortrimazole (from 10 μg to 40 μg) were used, but the inhibition rings could not be clearly read due to the formation of a re-growth ring. Disks soaked with 10 μl pure dimethylsulphoxide (DMSO, Sigma-Aldrich, St. Louis, MO, USA) were used as negative control. The plates were incubated at 35° C. for 24 hours. All the experiments were carried out in duplicate. The inhibiting effect of the oils were considered to be effective when the inhibition ring was equal or greater than that caused by amphotericin B. For amphotericin B, an inhibition zone (IZ)≥15 mm was considered as “sensitivity”, from 10 to 14 mm as “intermediate sensitivity” and <10 mm as “resistance” [Kauser et al., Agreement of Direct Antifungal Susceptibility Testing from Positive Blood Culture Bottles with Conventional Method for Candida Species, J Clin Microbiol. 2016 February, 54(2):343-34].

C. lusitaniae [3] = test: Microdilution method MIC/MFC, C. lusitaniae strain; assay type: cell-based; conditions: C. lusitaniae 1
Procedure: as §1
(§3) The antifungal activity of amphotericin B and of cinnamaldheyde and eugenol were tested with the microdilution method as reported by Bona et al. [Bona et al., Sensitivity of Candida albicans to essential oils: are they an alternative to antifungal agents? J Appl Microbiol. 2016 December, 121(6): 1530-1545] with small changes. All the 18 Candida spp strains were tested. For each isolated, the colonies deriving from cultures (24 hours) in PDA were diluted in saline up to a concentration of 2×10^3 CFU/ml (so obtaining a final concentration of 10 3CGU/ml). Cinnamaldehyde and eugenol were dissolved in DMSO (80% oil, 20% DMSO), then diluted in Sabouraud broth up to a concentration of 8% v/v (so obtaining a final concentration of 4% v/v). Then, in a 96-well microtiter plate ½ serial dilution of amphotericin B (range 32-0.032 μg/ml, for a final range of 16-0.016 μg/ml) and of the essential oils (range 8-0.004% v/v, for a final range of 4-0.002% v/v) were carried out. Each well was then injected with 100 μl of cell suspension. The negative control contained DMSO diluted in Sabouraud broth (at 2% v/v, for a final concentration of 1% v/v). […] Each experiment was carried out in duplicate. The Minimum Inhibitory Concentration (MIC) was determined as the concentration of the oils in the first well which is not cloudy. The Minimum Fungicidal Concentration (MFC) was determined as the lowest concentration of the oils, with the agar culture showing the complete absence of fungal growth. The determination of the amphotericin B MIC was carried out also according to the EUCAST guidelines (cutoff 1 μg/ml) [https://eucast.org/astoffungi/clinicalbreakpointsforantifungals], all the results being consistent.

Candida spp. [4] = test: Disk diffusion method, 18 Candida spp. strains (distribution); assay type: cell-based
Procedure: as §1, §2

C. lusitaniae [5] = test: Disk diffusion method, C. lusitaniae strain; assay type: cell-based; conditions: C. lusitaniae 1
Procedure: as §1
Colonies were re-suspended in sterile saline at a density corresponding to #0.5 McFarland (opacity standard). #0.5 McF correspond to 1.4×10^6 colony forming units (CFU)/ml for C. albicans, 4.3×10^6 CFU/ml for C. glabrata and 3×10^6 CFU/ml for C. lusitaniae [Guinea J. et al., Rapid antifungal susceptibility determination for yeast isolates by use of Etest performed directly on blood samples from patients with fungemia, J Clin Microbiol. 2010 June, 48(6): 2205-12]. Then, the sensitivity test vs the two oils has been performed. The disk diffusion method was carried out as follows: for each tested strain, 4 plates of Potato Dextrose Agar (PDA) were seeded in 3 directions to produce a confluent growth, by sterile swab soaked in the cell suspension. Sorbent paper disks (Oxoid Thermofisher SpA, Milan, Italy) 6.0 mm diameter were placed on the agar surface and added with 10 μl of each essential oil. Disks soaked with 10 μg amphotericin B were used as positive control. Also disks of chlortrimazole (from 10 μg to 40 μg) were used, but the inhibition rings could not be clearly read due to the formation of a re-growth ring. Disks soaked with 10 μl pure dimethylsulphoxide (DMSO, Sigma-Aldrich, St. Louis, MO, USA) were used as negative control. The plates were incubated at 35° C. for 24 hours. All the experiments were carried out in duplicate. […]

C. glabrata [6] = test: Microdilution method MIC/MFC, C. glabrata strains; assay type: cell-based
Procedure: as §1, §3

C. albicans [7] = test: Disk diffusion method, C. albicans strains; assay type: cell-based
Procedure: as §1, §2

Candida spp. [8] = test: Microdilution method MIC/MFC, 18 Candida spp. strains (distribution); assay type: cell-based; conditions: 18 strains
Procedure: as §1, §3

C. albicans [9] = test: Microdilution method MIC/MFC, C. albicans strains; assay type: cell-based
Procedure: as §1, §3

[10] = 18 strains, disk 10 μl oil or 10 μg amphotericin B, 35° C. 24 hours

CC1=CCC2CC1C2(C)C (stereo not drawn) [α-pinene]
advantage when administered in combination with cinnamaldehyde or eugenol [1]: did not show any advantage

C[C@@H]1[C@H](O)[C@@H](C)/C=C/C=C/C=C/C=C/C=C/C=C/C=C/[C@H](O[C@@H]2O[C@H](C)[C@@H](O)[C@H](N)[C@@H]2O)C[C@@H]2O[C@](O)(C[C@@H](O)C[C@@H](O)[C@H](O)CC[C@@H](O)C[C@@H](O)CC(=O)O[C@H]1C)C[C@H](O)[C@H]2C(=O)O [Amphotericin B, amphotericin B, reference compound]
Diameters of the inhibition rings (including 6.0 mm of the disk) (C. glabrata [2]; C. glabrata 1): 15.0 mm
Diameters of the inhibition rings (including 6.0 mm of the disk) (C. glabrata [2]; C. glabrata 2): 11.0 mm
MFC (C. lusitaniae [3]): 0.250 µg/mL (≈ 0.271 µM)
MIC (C. lusitaniae [3]): 0.125 µg/mL (≈ 0.135 µM)
inhibition rings diameter, average (including 6.0 mm of the disk) (Candida spp. [4]; [10]): 15.4 mm
inhibition rings diameter, range (including 6.0 mm of the disk) (Candida spp. [4]; [10]): 10-20.5 mm
category of the inhibition rings (Candida spp. [4]; all 18 strains, confirmed by microdilution): “sensitivity” or “intermediate sensitivity”
Diameters of the inhibition rings (including 6.0 mm of the disk) (C. lusitaniae [5]): 10.0 mm
MFC (C. glabrata [6]; C. glabrata 1): 0.064 µg/mL (≈ 0.0693 µM)
MIC (C. glabrata [6]; C. glabrata 1): 0.032 µg/mL (≈ 0.0346 µM)
MFC (C. glabrata [6]; C. glabrata 2): 0.125 µg/mL (≈ 0.135 µM)
MIC (C. glabrata [6]; C. glabrata 2): 0.125 µg/mL (≈ 0.135 µM)
Diameters of the inhibition rings (including 6.0 mm of the disk) (C. albicans [7]; C. albicans 1): 13.0 mm
Diameters of the inhibition rings (including 6.0 mm of the disk) (C. albicans [7]; C. albicans 2): 15.5 mm
Diameters of the inhibition rings (including 6.0 mm of the disk) (C. albicans [7]; C. albicans 3): 16.0 mm
Diameters of the inhibition rings (including 6.0 mm of the disk) (C. albicans [7]; C. albicans 4): 19.5 mm
Diameters of the inhibition rings (including 6.0 mm of the disk) (C. albicans [7]; C. albicans 5): 16.0 mm
Diameters of the inhibition rings (including 6.0 mm of the disk) (C. albicans [7]; C. albicans 6): 16.0 mm
Diameters of the inhibition rings (including 6.0 mm of the disk) (C. albicans [7]; C. albicans 7): 16.0 mm
Diameters of the inhibition rings (including 6.0 mm of the disk) (C. albicans [7]; C. albicans 8): 20.5 mm
Diameters of the inhibition rings (including 6.0 mm of the disk) (C. albicans [7]; C. albicans 9): 12.0 mm
Diameters of the inhibition rings (including 6.0 mm of the disk) (C. albicans [7]; C. albicans 10): 15.0 mm
Diameters of the inhibition rings (including 6.0 mm of the disk) (C. albicans [7]; C. albicans 11): 14.5 mm
Diameters of the inhibition rings (including 6.0 mm of the disk) (C. albicans [7]; C. albicans 12): 16.5 mm
Diameters of the inhibition rings (including 6.0 mm of the disk) (C. albicans [7]; C. albicans 13): 16.0 mm
Diameters of the inhibition rings (including 6.0 mm of the disk) (C. albicans [7]; C. albicans 14): 19.0 mm
Diameters of the inhibition rings (including 6.0 mm of the disk) (C. albicans [7]; C. albicans 15): 15.5 mm
MFC average (Candida spp. [8]): 0.11 µg/mL (≈ 0.119 µM)
MIC average (Candida spp. [8]): 0.052 µg/mL (≈ 0.0563 µM)
MFC (C. albicans [9]; C. albicans 1): 0.064 µg/mL (≈ 0.0693 µM)
MIC (C. albicans [9]; C. albicans 1): 0.032 µg/mL (≈ 0.0346 µM)
MFC (C. albicans [9]; C. albicans 2): 0.064 µg/mL (≈ 0.0693 µM)
MIC (C. albicans [9]; C. albicans 2): 0.032 µg/mL (≈ 0.0346 µM)
MFC (C. albicans [9]; C. albicans 3): 0.064 µg/mL (≈ 0.0693 µM)
MIC (C. albicans [9]; C. albicans 3): 0.032 µg/mL (≈ 0.0346 µM)
MFC (C. albicans [9]; C. albicans 4): 0.125 µg/mL (≈ 0.135 µM)
MIC (C. albicans [9]; C. albicans 4): 0.032 µg/mL (≈ 0.0346 µM)
MFC (C. albicans [9]; C. albicans 5): 0.250 µg/mL (≈ 0.271 µM)
MIC (C. albicans [9]; C. albicans 5): 0.016 µg/mL (≈ 0.0173 µM)
MFC (C. albicans [9]; C. albicans 6): 0.064 µg/mL (≈ 0.0693 µM)
MIC (C. albicans [9]; C. albicans 6): 0.032 µg/mL (≈ 0.0346 µM)
MFC (C. albicans [9]; C. albicans 7): 0.064 µg/mL (≈ 0.0693 µM)
MIC (C. albicans [9]; C. albicans 7): 0.032 µg/mL (≈ 0.0346 µM)
MFC (C. albicans [9]; C. albicans 8): 0.032 µg/mL (≈ 0.0346 µM)
MIC (C. albicans [9]; C. albicans 8): 0.016 µg/mL (≈ 0.0173 µM)
MFC (C. albicans [9]; C. albicans 9): 0.250 µg/mL (≈ 0.271 µM)
MIC (C. albicans [9]; C. albicans 9): 0.125 µg/mL (≈ 0.135 µM)
MFC (C. albicans [9]; C. albicans 10): 0.032 µg/mL (≈ 0.0346 µM)
MIC (C. albicans [9]; C. albicans 10): 0.032 µg/mL (≈ 0.0346 µM)
MFC (C. albicans [9]; C. albicans 11): 0.250 µg/mL (≈ 0.271 µM)
MIC (C. albicans [9]; C. albicans 11): 0.125 µg/mL (≈ 0.135 µM)
MFC (C. albicans [9]; C. albicans 12): 0.016 µg/mL (≈ 0.0173 µM)
MIC (C. albicans [9]; C. albicans 12): ≤0.016 µg/mL
MFC (C. albicans [9]; C. albicans 13): 0.125 µg/mL (≈ 0.135 µM)
MIC (C. albicans [9]; C. albicans 13): 0.064 µg/mL (≈ 0.0693 µM)
MFC (C. albicans [9]; C. albicans 14): 0.125 µg/mL (≈ 0.135 µM)
MIC (C. albicans [9]; C. albicans 14): 0.032 µg/mL (≈ 0.0346 µM)
MFC (C. albicans [9]; C. albicans 15): 0.064 µg/mL (≈ 0.0693 µM)
MIC (C. albicans [9]; C. albicans 15): 0.032 µg/mL (≈ 0.0346 µM)
